Source: patent US8816085B2 (Takeda GmbH, priority 2009, dated 2014)

target: T1, PDE5A1 (human PDE5 from platelets) (Homo sapiens, UniProt O76074); test: Inhibition of type 5 phosphodiesterase (PDE5) activity, modified SPA test; type: biochemical; settings: PDE5-containing human platelet lysate, 0.5 μM cGMP, value classes, read-out: PDE5A1 inhibitory values [measured as −logIC50 (mol/l)] (converted)
T1 construct: from tissue; host or cells: platelets from fresh blood of human donors (10,000 g supernatant of sonified platelets)
Procedure: Method for Measuring Inhibition of the Type 5 Phosphodiesterase (PDE5) Activity:
As a source for human PDE5, platelets are used. For that purpose, 150 ml fresh blood from human donors anticoagulated with citrate [final concentration 0.3% (w/v)] is centrifuged at 200 g for 10 min to obtain the so-called platelet-rich-plasma (PRP) as a supernatant. 1/10 volume of ACD solution (85 mM Na3-citrate, 111 mM D-glucose, 71 mM citric acid, pH 4.4) is added to 9/10 volume of PRP. After centrifugation (1,400 g, 10 min) the cell pellet is resuspended in 3 ml homogenization buffer (NaCl 140 mM, KCl 3.8 mM, EGTA (ethylene glycol tetraacetic acid) 1 mM, MgCl2 1 mM, Tris-HCl 20 mM, beta-mercaptoethanol 1 mM, pH 8.2) plus protease-inhibitor mix giving rise to the final concentrations of 0.5 mM Pefablock (Roche), 10 μM Leupeptin, 5 μM Trypsininhibitor, 2 mM Benzamidin and 10 μM Pepstatin A. The suspension is sonified and thereafter centrifuged for 15 min at 10,000 g. The resulting supernatant (platelet lysate) is used for enzymatic testings.
PDE5A1 activity is inhibited by the compounds of the present subject matter in a modified SPA (scintillation proximity assay) test, supplied by Amersham Biosciences (see procedural instructions “phosphodiesterase [3H]cAMP SPA enzyme assay, code TRKQ 7090”), carried out in 96-well microtitre plates (MTP's). The test volume is 100 μl and contains 20 mM Tris buffer (pH 7.4), 0.1 mg of BSA (bovine serum albumin)/ml, 5 mM Mg^2+, 1 μM motapizone, 10 nM PDE2 inhibitor 2-(3,4-dimethoxybenzyl)-7-[(1R,2R)-2-hydroxy-1-(2-phenylethyl)propyl]-5-methylimidazo[5,1-t][1,2,4]triazin-4(3H)-one, 0.5 μM cGMP (cyclic guanosine monophosphate) (including about 50,000 cpm of [3H]cGMP as a tracer), 1 μl of the respective compound dilution in dimethylsulfoxide (DMSO) and sufficient PDE5-containing platelet lysat (10,000×g supernatant, see above) to ensure that 10-20 wt % of the cGMP is converted under the said experimental conditions. […] After a preincubation of 5 min at 37° C., the reaction is started by adding the substrate (cGMP) and the assay is incubated for a further 15 min; after that, it is stopped by adding SPA beads (50 μl). In accordance with the manufacturer's instructions, the SPA beads had previously been resuspended in water, but are then diluted 1:3 (v/v) in water; the diluted solution also contains 3 mM 8-methoxymethyl-3-isobutyl-1-methylxanthine (IBMX) to ensure a complete PDE activity stop. After the beads have been sedimented (>30 min), the MTP's are analyzed in commercially available luminescence detection devices. The corresponding IC50 values of the compounds for the inhibition of PDE activity are determined from the concentration-effect curves by means of non-linear regression.

Row | IC50 | Structure (SMILES)
1 | < 1 nM | COc1cc(OCC2CC2)c(-c2ccnc3c(C(=O)N[C@H]4CC[C@H](NC(=O)CO)CC4)c(C)[nH]c23)cc1F [Example F52, 7-[2-(Cyclopropylmethoxy)-5-fluoro-4-methoxyphenyl]-N-[trans-4-(glycoloylamino)cyclohexyl]-2-methyl-1H-pyrrolo[3,2-b]pyridine-3-carboxamide]
2 | 1 to 10 nM | Cc1ccc(OCC2CC2)c(-c2ccnc3c(C(=O)NC4CCN(C(=O)[C@H](C)O)CC4)c(C)[nH]c23)c1 [Example F35, 7-[2-(cyclopropylmethoxy)-5-methylphenyl]-N-{1-[abs.(2S)-2-hydroxypropanoyl]piperidin-4-yl}-2-methyl-1H-pyrrolo[3,2-b]pyridine-3-carboxamide]
3 | 1 to 10 nM | Cc1ccc(OCC2CC2)c(-c2ccnc3c(C(=O)N[C@H]4CC[C@@H](NC(=O)CO)CC4)c(C)[nH]c23)c1 [Example F38, 7-[2-(Cyclopropylmethoxy)-5-methylphenyl]-N-{cis-4-[(hydroxyacetyl)amino]cyclohexyl}-2-methyl-1H-pyrrolo[3,2-b]pyridine-3-carboxamide]
4 | < 1 nM | COc1cc(-c2ccnc3c(C(=O)N[C@H]4CC[C@H](NC(=O)CO)CC4)c(C)[nH]c23)c(OCC2CC2)cc1F [Example F42, 7-[2-(Cyclopropylmethoxy)-4-fluoro-5-methoxyphenyl]-N-{trans-4-[(hydroxyacetyl)amino]cyclohexyl}-2-methyl-1H-pyrrolo[3,2-b]pyridine-3-carboxamide]
5 | < 1 nM | COc1cc(OCC2CC2)c(-c2ccnc3c(C(=O)N[C@H]4CC[C@@H](NC(=O)CO)CC4)c(C)[nH]c23)cc1F [Example F54, 7-[2-(Cyclopropylmethoxy)-5-fluoro-4-methoxyphenyl]-N-[cis-4-(glycoloylamino)cyclohexyl]-2-methyl-1H-pyrrolo[3,2-b]pyridine-3-carboxamide]
6 | < 1 nM | COc1ccc(-c2ccnc3c(C(=O)N[C@H]4CC[C@H](NC(=O)[C@H](C)O)CC4)c(C)[nH]c23)c(OCC2CC2)c1 [Example F23, 7-[2-(Cyclopropylmethoxy)-4-methoxyphenyl]-N-(trans-4-{[(2S)-2-hydroxypropanoyl]amino}cyclohexyl)-2-methyl-1H-pyrrolo[3,2-b]pyridine-3-carboxamide]
7 | < 1 nM | COc1ccc(OCC2CC2)c(-c2ccnc3c(C(=O)NC4CCN(C(=O)[C@H](C)O)CC4)c(C)[nH]c23)c1 [Example F27, 7-[2-(Cyclopropylmethoxy)-5-methoxyphenyl]-N-{1-[(2S)-2-hydroxypropanoyl]piperidin-4-yl}-2-methyl-1H-pyrrolo[3,2-b]pyridine-3-carboxamide]
8 | < 1 nM | COc1cc(-c2ccnc3c(C(=O)N[C@H]4CC[C@H](NC(=O)[C@H](C)O)CC4)c(C)[nH]c23)c(OCC2CC2)cc1F [Example F43, 7-[2-(Cyclopropylmethoxy)-4-fluoro-5-methoxyphenyl]-N-(trans-4-{[(2S)-2-hydroxypropanoyl]amino}cyclohexyl)-2-methyl-1H-pyrrolo[3,2-b]pyridine-3-carboxamide]
9 | < 1 nM | COc1cc(-c2ccnc3c(C(=O)N[C@H]4CC[C@@H](NC(=O)[C@H](C)O)CC4)c(C)[nH]c23)c(OCC2CC2)cc1F [Example F45, 7-[2-(Cyclopropylmethoxy)-4-fluoro-5-methoxyphenyl]-N-(cis-4-{[abs.(2S)-2-hydroxypropanoyl]amino}cyclohexyl)-2-methyl-1H-pyrrolo[3,2-b]pyridine-3-carboxamide]

Second part, the compound before the results:

Row | Structure (SMILES) | IC50
10 | CC(=O)N[C@H]1CC[C@@H](NC(=O)c2c(C)[nH]c3c(-c4cc(F)ccc4OCC4CC4)ccnc23)CC1 [Example E25, N-[cis-4-(Acetylamino)cyclohexyl]-7-[2-(cyclopropylmethoxy)-5-fluorophenyl]-2-methyl-1H-pyrrolo[3,2-b]pyridine-3-carboxamide] | 1 to 10 nM
11 | COCC(=O)N[C@H]1CC[C@@H](NC(=O)c2c(C)[nH]c3c(-c4cc(OC)c(F)cc4OCC4CC4)ccnc23)CC1 [Example E69, 7-[2-(Cyclopropylmethoxy)-4-fluoro-5-methoxyphenyl]-N-{cis-4-[(methoxyacetyl)amino]cyclohexyl}-2-methyl-1H-pyrrolo[3,2-b]pyridine-3-carboxamide] | < 1 nM
12 | COc1cc(-c2ccnc3c(C(=O)N[C@@H]4CCN(C(C)=O)C[C@H]4O)c(C)[nH]c23)c(OCC2CC2)cc1F (relative stereo) [Example E73, N-[(3R*,4R*)-1-Acetyl-3-hydroxypiperidin-4-yl]-7-[2-(cyclopropylmethoxy)-4-fluoro-5-methoxyphenyl]-2-methyl-1H-pyrrolo[3,2-b]pyridine-3-carboxamide] | < 1 nM
13 | CCC(=O)N1CCC(NC(=O)c2c(C)[nH]c3c(-c4ccc(F)cc4OCC4CC4)ccnc23)CC1 [Example E11, 7-[2-(Cyclopropylmethoxy)-4-fluorophenyl]-2-methyl-N-(1-propanoylpiperidin-4-yl)-1H-pyrrolo[3,2-b]pyridine-3-carboxamide] | < 1 nM
14 | CCC(=O)N[C@H]1CC[C@@H](NC(=O)c2c(C)[nH]c3c(-c4cc(OC)ccc4OCC4CC4)ccnc23)CC1 [Example E47, 7-[2-(Cyclopropylmethoxy)-5-methoxyphenyl]-2-methyl-N-[cis-4-(propanoylamino)cyclohexyl]-1H-pyrrolo[3,2-b]pyridine-3-carboxamide] | 1 to 10 nM
15 | COCC(=O)N1CC[C@@H](NC(=O)c2c(C)[nH]c3c(-c4cc(OC)c(F)cc4OCC4CC4)ccnc23)[C@H](O)C1 (relative stereo) [Example E75, 7-[2-(Cyclopropylmethoxy)-4-fluoro-5-methoxyphenyl]-N-[(3R*,4R*)-3-hydroxy-1-(methoxyacetyl)piperidin-4-yl]-2-methyl-1H-pyrrolo[3,2-b]pyridine-3-carboxamide] | < 1 nM
16 | COCC(=O)N1CCC(NC(=O)c2c(C)[nH]c3c(-c4cc(OC)ccc4OCC4CC4)ccnc23)CC1 [Example E42, 7-[2-(cyclopropylmethoxy)-5-methoxyphenyl]-N-[1-(methoxyacetyl)piperidin-4-yl]-2-methyl-1H-pyrrolo[3,2-b]pyridine-3-carboxamide] | 1 to 10 nM
17 | COCC(=O)N[C@H]1CC[C@H](NC(=O)c2c(C)[nH]c3c(-c4cc(C)ccc4OCC4CC4)ccnc23)CC1 [Example E57, 7-[2-(Cyclopropylmethoxy)-5-methylphenyl]-N-{trans-4-[(methoxyacetyl)amino]cyclohexyl}-2-methyl-1H-pyrrolo[3,2-b]pyridine-3-carboxamide] | 1 to 10 nM
18 | CCC(=O)N[C@H]1CC[C@@H](NC(=O)c2c(C)[nH]c3c(-c4cc(F)ccc4OCC4CC4)ccnc23)CC1 [Example E26, 7-[2-(Cyclopropylmethoxy)-5-fluorophenyl]-2-methyl-N-[cis-4-(propanoylamino)cyclohexyl]-1H-pyrrolo[3,2-b]pyridine-3-carboxamide] | 1 to 10 nM
19 | COCC(=O)N[C@H]1CC[C@@H](NC(=O)c2c(C)[nH]c3c(-c4cc(F)ccc4OCC4CC4)ccnc23)CC1 [Example E27, 7-[2-(Cyclopropylmethoxy)-5-fluorophenyl]-N-{cis-4-[(methoxyacetyl)amino]cyclohexyl}-2-methyl-1H-pyrrolo[3,2-b]pyridine-3-carboxamide] | 1 to 10 nM
20 | COCC(=O)N[C@H]1CC[C@@H](NC(=O)c2c(C)[nH]c3c(-c4cc(F)c(OC)cc4OCC4CC4)ccnc23)CC1 [Example E84, 7-[2-(Cyclopropylmethoxy)-5-fluoro-4-methoxyphenyl]-N-{cis-4-[(methoxyacetyl)amino]cyclohexyl}-2-methyl-1H-pyrrolo[3,2-b]pyridine-3-carboxamide] | < 1 nM
21 | CC(=O)N1CCC(NC(=O)c2c(C)[nH]c3c(-c4cc(C)ccc4OCC4CC4)ccnc23)CC1 [Example E52, N-(1-Acetylpiperidin-4-yl)-7-[2-(cyclopropylmethoxy)-5-methylphenyl]-2-methyl-1H-pyrrolo[3,2-b]pyridine-3-carboxamide] | 1 to 10 nM
22 | CCC(=O)N[C@H]1CC[C@@H](NC(=O)c2c(C)[nH]c3c(-c4cc(C)ccc4OCC4CC4)ccnc23)CC1 [Example E59, 7-[2-(Cyclopropylmethoxy)-5-methylphenyl]-2-methyl-N-[cis-4-(propanoylamino)cyclohexyl]-1H-pyrrolo[3,2-b]pyridine-3-carboxamide] | 1 to 10 nM
